In general, IC50 refers to the midpoint of a concentration-inhibition curve. Broadly, the GI50 is the concentration at which growth is held to half of that of the control. Low readings indicate more potent growth inhibition, high ones less potent growth inhibition.

Assay [1] has as its target T1, human BRD4 bromodomain II (Homo sapiens, UniProt O60885).
T1 construct: human BRD4 bromodomain II [based on Genbank NM_058243, residues 349-460]; host or cells: E. coli
The experiment in a line: Bromodomain binding assay (AlphaScreen), BRD4 BDII. The procedure, abridged: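 Inhibition of acetyl-H4 peptide binding to human BRD4 bromodomains is measured by bead-based proximity (AlphaScreen) in pH 7.5 HEPES buffer containing 0.05% CHAPS and 0.1% BSA. Ten compound concentrations in 3-fold steps give competitive binding IC50s.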

In assay [2] the test system is human SKM-1 acute myeloid leukemia cells. The experiment in a line: SKM-1 antiproliferation cell-based assay (ATPlite). As to conditions: Homo sapiens. Put shortly: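 Log-phase cells in RPMI 1640/15% FBS were seeded at 34722 cells/mL and exposed for 4 days to nine-concentration DMSO serial dilutions in triplicate. Viability was read as ATP luminescence (ATPlite 1step), and IC50 values came from variable-slope non-linear regression.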

Setting [3] is: AlphaScreen assay, Table C2, read-out: BRD4 BDII IC50.
[4] abbreviates: SKM-1, 96 h, SKM-1 antiproliferation assay, 4 days, Table C2.
Where [5] appears, read: BRD4 BDII AlphaScreen assay, read-out: BRD4 BD2 IC50.
The mark [6] stands for this setting: SKM-1, SKM-1 antiproliferation assay.

Where two headings read alike, the source gives them in different places.

As for `Cn1ccn(-c2ccc(-c3cc(F)cc(-c4ccnc(N5CC[S+]([O-])CC5)c4)c3O)cc2Cl)c1=O` [Example 690, 1-(3-chloro-5′-fluoro-2′-hydroxy-3′-(2-(1-oxidothiomorpholino)pyridin-4-yl)-[1,1′-biphenyl]-4-yl)-3-methyl-1H-imidazol-2(3H)-one], the half-maximal inhibitory concentration (IC50) in assay [1] (setting [3]) was 0.01 to 1 nM. Moreover, the GI50 in assay [2] (setting [4]) fell in the range of 30 to 300 nM.
For `Cc1cc(-c2ccc(-n3ccn(C)c3=O)c(Cl)c2)c(O)c(-c2ccc(F)c(N3CCN(C(C)(C)C)CC3)c2)n1` [Example 1000, 1-(4-(2-(3-(4-(tert-butyl)piperazin-1-yl)-4-fluorophenyl)-3-hydroxy-6-methylpyridin-4-yl)-2-chlorophenyl)-3-methyl-1H-imidazol-2(3H)-one], the IC50 in assay [1] (setting [5]) is 1 to 10 nM. The same molecule came in with a GI50 in assay [2] (setting [6]) of 0.3 to 30 nM.
Turning to `C[C@@H]1CN(c2cc(-c3cccc(-c4ccc(N5CCCC5=O)c(F)c4)c3O)ccn2)CCN1` [Example 252, (R)-1-(3-fluoro-2′-hydroxy-3′-(2-(3-methylpiperazin-1-yl)pyridin-4-yl)-[1,1′-biphenyl]-4-yl)pyrrolidin-2-one], the half-inhibitory concentration (IC50) in assay [1] (setting [3]) fell in the range of 1 to 10 nM. The molecule also showed a GI50 in assay [2] (setting [4]) of 300 to 3000 nM.
For `Cc1cc(-c2ccc(-n3ccn(C)c3=O)c(Cl)c2)c(O)c(-c2ccnc(N3CCC4(CCC(=O)N4)C3)c2)n1` (centres unmarked) [Example 1032, 7-(4-(3-chloro-4-(3-methyl-2-oxo-2,3-dihydro-1H-imidazol-1-yl)phenyl)-3-hydroxy-6-methyl-[2,4′-bipyridin]-2′'-yl)-1,7-diazaspiro[4.4]nonan-2-one], the IC50 in assay [1] (setting [5]) lay within 0.01 to 1 nM. For the same molecule, in assay [2] (setting [6]), the GI50 was in the range of 0.3 to 30 nM.
`Cc1ccc(-c2cc(F)cc(-c3ccc(-n4ccn(C)c4=O)c(Cl)c3)c2O)cc1C(N)=O` [Example 766]: the IC50 in assay [1] (setting [3]) lay in the range of 1 to 10 nM. The molecule also showed a GI50 in assay [2] (setting [4]) of 30 to 300 nM.
Regarding `Cn1ccn(-c2ccc(-c3cc(F)cc(-c4cc(N5CCN6CCCCC6C5)c5cn[nH]c5c4)c3O)cc2Cl)c1=O` (centres unmarked) [Example 601, 1-(3-chloro-5′-fluoro-3′-(4-(hexahydro-1H-pyrido[1,2-a]pyrazin-2(6H)-yl)-1H-indazol-6-yl)-2′-hydroxy-[1,1′-biphenyl]-4-yl)-3-methyl-1H-imidazol-2(3H)-one], in assay [1] (setting [3]), the IC50 is 0.01 to 1 nM. For the same molecule, the GI50 in assay [2] (setting [4]) was 0.3 to 30 nM.
As for `COc1ncc(-c2cc(F)cc(-c3ccc(-n4cc(C)n(C)c4=O)c(Cl)c3)c2O)cc1N1CCN(C(C)(C)C)CC1` [Example 982, 1-(3′-(5-(4-(tert-butyl)piperazin-1-yl)-6-methoxypyridin-3-yl)-3-chloro-5′-fluoro-2′-hydroxy-[1,1′-biphenyl]-4-yl)-3,4-dimethyl-1H-imidazol-2(3H)-one], in assay [1] (setting [5]), the IC50 lay within 1 to 10 nM. In assay [2] (setting [6]), this molecule showed a GI50 of 30 to 300 nM.
Regarding `COc1ncc(-c2cc(F)cc(-c3ccc(-n4ccn(C)c4=O)c(Cl)c3)c2O)cc1N1CC(C)(C)[C@](C)(O)C1` [Example 871], the IC50 in assay [1] (setting [5]) fell in the range of 1 to 10 nM. The molecule also had a GI50 in assay [2] (setting [6]) of 30 to 300 nM.
On to `CN[C@H]1CCN(c2cc(-c3cc(F)cc(-c4ccc(-n5ccn(C)c5=O)c(Cl)c4)c3O)ccn2)C1` [Example 429], for which the IC50 in assay [1] (setting [3]) is 0.01 to 1 nM. This molecule displayed a GI50 in assay [2] (setting [4]) of 0.3 to 30 nM.
The matching figures for `Cn1ccn(-c2ccc(-c3cc(F)cc(-c4cncc(N5CCC(N)CC5)c4)c3O)cc2Cl)c1=O` [Example 459, 1-(3′-(5-(4-aminopiperidin-1-yl)pyridin-3-yl)-3-chloro-5′-fluoro-2′-hydroxy-[1,1′-biphenyl]-4-yl)-3-methyl-1H-imidazol-2(3H)-one]: 1 to 10 nM and 0.3 to 30 nM.
As for `Cn1ccn(-c2ccc(-c3cc(F)cc(-c4cc(N5CCNCC5)c5nn[nH]c5c4)c3O)cc2Cl)c1=O` [Example 535, 1-(3-chloro-5′-fluoro-2′-hydroxy-3′-(4-(piperazin-1-yl)-1H-benzo[d][1,2,3]triazol-6-yl)-[1,1′-biphenyl]-4-yl)-3-methyl-1H-imidazol-2(3H)-one], the IC50 in assay [1] (setting [3]) was in the range of 1 to 10 nM. Also, the concentration for 50% growth inhibition (GI50) in assay [2] (setting [4]) lay in the range of 0.3 to 30 nM.
On the same counts, the results for `COCC(C)(C)N1CCN(c2cc(-c3cc(F)cc(-c4ccc(-n5ccn(C)c5=O)c(Cl)c4)c3O)ccn2)CC1` [Example 724, 1-(3-chloro-5′-fluoro-2′-hydroxy-3′-(2-(4-(1-methoxy-2-methylpropan-2-yl)piperazin-1-yl)pyridin-4-yl)-[1,1′-biphenyl]-4-yl)-3-methyl-1H-imidazol-2(3H)-one] are 0.01 to 1 nM and 0.3 to 30 nM.
Turning to `CN1CCN(c2ccc(-c3cc(F)cc(-c4cnc(OC5CCC(O)CC5)c(N5CCNCC5)c4)c3O)cc2Cl)C1=O` (centres unmarked) [Example 421, 1-(3-chloro-5′-fluoro-2′-hydroxy-3′-(6-((4-hydroxycyclohexyl)oxy)-5-(piperazin-1-yl)pyridin-3-yl)-[1,1′-biphenyl]-4-yl)-3-methylimidazolidin-2-one], the IC50 in assay [1] (setting [3]) lay within 0.01 to 1 nM. Moreover, in assay [2] (setting [4]), the GI50 fell in the range of 30 to 300 nM.
On the same counts, the results for `O=C1CCCN1c1ccc(-c2cc(Cl)cc(-c3ccnc(N4CCNCC4)c3)c2O)cc1F` [Example 269, 1-(5′-chloro-3-fluoro-2′-hydroxy-3′-(2-(piperazin-1-yl)pyridin-4-yl)-[1,1′-biphenyl]-4-yl)pyrrolidin-2-one] are 1 to 10 nM and 300 to 3000 nM.
The matching figures for `Cc1cc(-c2cncc(N3CCN[C@H](C)C3)c2)c(O)c(-c2ccc(-n3ccn(C)c3=O)c(Cl)c2)c1` [Example 508, (R)-1-(3-chloro-2′-hydroxy-5′-methyl-3′-(5-(3-methylpiperazin-1-yl)pyridin-3-yl)-[1,1′-biphenyl]-4-yl)-3-methyl-1H-imidazol-2(3H)-one]: 1 to 10 nM and 0.3 to 30 nM.
`O=C1CCCN1c1ccc(-c2cc(F)cc(-c3ccnc(N4CC5(CNC5)C4)c3)c2O)cc1Cl` [Example 324, 1-(3′-(2-(2,6-diazaspiro[3.3]heptan-2-yl)pyridin-4-yl)-3-chloro-5′-fluoro-2′-hydroxy-[1,1′-biphenyl]-4-yl)pyrrolidin-2-one]: in assay [1] (setting [3]), the IC50 lay within 10 to 100 nM. The GI50 in assay [2] (setting [4]) was 300 to 3000 nM.
On to `CN(C)[C@H]1CCN(c2cncc(-c3cc(F)cc(-c4ccc(-n5ccn(C)c5=O)c(Cl)c4)c3O)c2)C1` [Example 475, (S)-1-(3-chloro-3′-(5-(3-(dimethylamino)pyrrolidin-1-yl)pyridin-3-yl)-5′-fluoro-2′-hydroxy-[1,1′-biphenyl]-4-yl)-3-methyl-1H-imidazol-2(3H)-one], for which the IC50 in assay [1] (setting [3]) is 0.01 to 1 nM. In addition, the GI50 in assay [2] (setting [4]) is 0.3 to 30 nM.
As for `Cn1ccn(-c2ccc(-c3cc(F)cc(-c4cccc(C#CC(C)(C)N)c4)c3O)cc2Cl)c1=O` [Example 771, 1-(3″-(3-amino-3-methylbut-1-yn-1-yl)-3-chloro-5′-fluoro-2′-hydroxy-[1,1′:3′,1″-terphenyl]-4-yl)-3-methyl-1H-imidazol-2(3H)-one], the IC50 in assay [1] (setting [3]) was in the range of 1 to 10 nM. Also, the GI50 in assay [2] (setting [4]) was 30 to 300 nM.
On to `CN1CCN(c2ccc(-c3cc(F)cc(-c4ccnc(C5=CCNCC5)c4)c3O)cc2Cl)C1=O` [Example 379, 1-(3-chloro-5′-fluoro-2′-hydroxy-3′-(1′,2′,3′,6′-tetrahydro-[2,4′-bipyridin]-4-yl)-[1,1′-biphenyl]-4-yl)-3-methylimidazolidin-2-one], for which the IC50 in assay [1] (setting [3]) is 1 to 10 nM. Moreover, the GI50 in assay [2] (setting [4]) is 30 to 300 nM.

(Values after patent US20250179059A1 (The Regents of the University of California, priority 2021, published 2025).)
